Experiments:
Format in all cases: cell-based
[1] = test system: PANC-1 human pancreatic cell line; assay: In vitro proliferation of PANC-1 cells (MTT); conditions: 72 hours exposure, read-out: PANC-1 (IC50 μg/ml)
Experimental: (§1) Swiftiapregnene was analyzed as to its effect on the proliferation of PANC-1 human pancreatic and P388 murine leukemia cell lines. P388 cells were obtained from Dr. R. Camalier, National Cancer Institute, Bethesda, Md., and PANC-1 cells were obtained from American Type Culture Collection, Rockville, Md. All cell lines were maintained in tissue culture medium (TCM; Roswell Park Memorial Institute RPMI 1640 supplemented with 100 U/mL penicillin, […] streptomycin, […] 1-glutamine, 18 mM HEPES, 0.05 mg/mL gentamicin (Life Technologies, Gaithersburg, Md.) and 10% fetal bovine serum) and cultured in plastic tissue culture flasks at 37° C. in humidified air containing 5% CO2. Stock cultures of P388 cells were subcultured 1:20 in fresh TCM every 2 to 3 days. Stock cultures of A549 cells were subcultured 1:10 every 3 to 4 days. To assess the antiproliferative effects of agents against the cells, […] cultures (96-well tissue culture plates, Nunc, Denmark) were established at 1×10^5 cells/mL in TCM or TCM containing the test agent at 0.03-5.0 μg/mL. After 48-h exposures, P388 cells were enumerated using 3-[4,5-dimethylthiazol-2-yl]-2,5-diphenyltetrazolium bromide (MTT) as described in the literature (M. C. Alley, et al., Cancer Res. 48:589, 1988). […] The results were expressed as percent inhibition compared to the negative (no drug) control. […]

[2] = test system: P388 murine leukemia cell line; assay: In vitro proliferation of P388 cells (MTT); conditions: Mus musculus, 48-h exposure, read-out: P388 (IC50 μg/ml)
Experimental: as §1

A549 human lung cells = assay: Cell cycle progression by flow cytometry (propidium iodide); conditions: 100 μg/ml, 24 hr
Experimental: Cell cycle studies were initiated in order to pinpoint a specific phase within the cell cycle in which discodermolide analogs were exerting their antiproliferative effect. A549 human lung cells were used as cell cycle targets to compare the effects of discodermolide and discodermolide analogs on perturbation of the cell cycle. Cell cycle analyses were performed as follows: A549 cells were incubated at 37° C. in 5% CO2 in air in the presence or absence of varying concentrations of discodermolide or discodermolide analogs for 24 hr. Cells were harvested, fixed in ethanol, washed, and stained with 0.2 mg/mL of propidium iodide (P.I.) together with 0.1 mg/mL of RNAse A. Stained preparations were analyzed on a Coulter EPICS ELITE flow cytometer with 488 nm excitation. Fluorescence measurements and resulting DNA histograms were collected from at least 10,000 P.I. stained cells at an emission wavelength of 690 nm. Raw histogram data was further analyzed using a cell cycle analysis program (Multicycle, Phoenix Flow Systems).

Question: With C=CC1CCC2C3CC=C4CC(OC5OC(C)C(O)C(O)C5OC(C)=O)CCC4(C)C3CCC12C (stereo not drawn) [Swiftiapregnene (I), Swiftiapregnene] as the compound, how does the IC50 [1] read?
Answer: 7.4 µg/mL

Question: And the IC50 [2]?
Answer: 21 µg/mL

Question: And the “effect on cell cycle (sub-G1 population)” value (A549 human lung cells)?
Answer: increase in the sub-G1 population

Source: patent US6784160B1, “Biologically active pregnene compounds” (Harbor Branch Oceanographic Institution, Inc., priority 2002, dated 2004)
